Reference: patent US20050032873A1, “3-Amino chroman and 2-amino tetralin derivatives” (Wyeth, priority 2003, published 2005)
Counter-ions that a name gives are not always drawn.

SMILES | melting point
CNC(=O)c1ccc(F)c2c1CC(N(CCc1c[nH]c3ccc(F)cc13)C1CCC1)CO2 (stereo not drawn) (as salt: hydrochloride) [Compound 87, 3-{cyclobutyl[2-(5-fluoro-1H-indol-3-yl)ethyl]amino}-8-fluoro-N-methylchromane-5-carboxamide] | 131 °C (dec.)
CCCN(CCCc1coc2ccccc12)C1COc2c(F)ccc(C(N)=O)c2C1 (stereo not drawn) (as salt: hydrochloride) [Compound 20, 3-[[3-(1-benzofuran-3-yl)propyl](propyl)amino]-8-fluorochromane-5-carboxamide] | 114 to 118 °C (dec.)
NC(=O)c1ccc(F)c2c1OCC(N(CCCc1c[nH]c3c(F)cc(F)cc13)C1CCC1)C2 (stereo not drawn) (as salt: hydrochloride) [Compound 131, 3-{cyclobutyl[3-(5,7-difluoro-1H-indol-3-yl)propyl]amino}-5-fluorochromane-8-carboxamide] | 136 °C (dec.)
COc1cccc2c1CC(N[C@H]1CC[C@@H](c3c[nH]c4ccc(F)cc43)CC1)CO2 (relative stereo) (as salt: hydrochloride) [Compound 181a, cis-N-[4-(5-fluoro-1H-indol-3-yl)cyclohexyl]-5-methoxychroman-3-amine] | 156.5 °C (dec.)
COc1cccc2c1CC(N(CCCc1c[nH]c3ccc(F)cc13)C1CCCC1)CO2 (stereo not drawn) (as salt: hydrochloride) [Compound 39, N-cyclopentyl-N-[3-(5-fluoro-1H-indol-3-yl)propyl]-N-(5-methoxy-3,4-dihydro-2H-chromen-3-yl)amine] | 112 °C (dec.)
O=C(NCc1ccccc1)c1ccc(F)c2c1CC(N(CCCc1c[nH]c3ccc(F)cc13)C1CCC1)CO2 (stereo not drawn) (as salt: hydrochloride) [Compound 69, N-benzyl-3-{cyclobutyl[3-(5-fluoro-1H-indol-3-yl)propyl]amino}-8-fluorochromane-5-carboxamide] | 124 °C (dec.)
O=C(NC1CC1)c1ccc(F)c2c1CC(N(CCCc1c[nH]c3ccc(F)cc13)C1CCC1)CO2 (stereo not drawn) (as salt: hydrochloride) [Compound 64, 3-{cyclobutyl[3-(5-fluoro-1H-indol-3-yl)propyl]amino}-N-cyclopropyl-8-fluorochromane-5-carboxamide] | 134 °C (dec.)
CCCN(CCCc1c[nH]c2ccc(F)cc12)C1COc2c(F)ccc(C(=O)NC)c2C1 (stereo not drawn) (as salt: hydrochloride) [Compound 90, 8-fluoro-3-[[3-(5-fluoro-1H-indol-3-yl)propyl](propyl)amino]-N-methylchromane-5-carboxamide] | 123 °C (dec.)
O=C(NCC1CC1)c1ccc(F)c2c1CC(N(CCCc1c[nH]c3ccc(F)cc13)C1CCC1)CO2 (stereo not drawn) (as salt: hydrochloride) [Compound 68, 3-{cyclobutyl[3-(5-fluoro-1H-indol-3-yl)propyl]amino}-N-(cyclopropylmethyl)-8-fluorochromane-5-carboxamide] | 114 °C (dec.)
CCCCNC(=O)c1ccc(F)c2c1CC(N(CCCc1c[nH]c3ccc(F)cc13)C1CCC1)CO2 (stereo not drawn) (as salt: hydrochloride) [Compound 62, N-butyl-3-{cyclobutyl[3-(5-fluoro-1H-indol-3-yl)propyl]amino}-8-fluorochromane-5-carboxamide] | 106 °C (dec.)
CCN(CCCCc1c[nH]c2ccc(F)cc12)C1COc2c(F)ccc(C(N)=O)c2C1 (stereo not drawn) (as salt: hydrochloride) [Compound 80, 3-{ethyl[4-(5-fluoro-1H-indol-3-yl)butyl]amino}-8-fluorochromane-5-carboxamide] | 110 °C (dec.)
COc1ccc2[nH]cc(CCCN(CC3CC3)C3COc4c(F)ccc(C(N)=O)c4C3)c2c1 (stereo not drawn) (as salt: hydrochloride) [Compound 108, 3-{(cyclopropylmethyl)[3-(5-methoxy-1H-indol-3-yl)propyl]amino}-8-fluorochromane-5-carboxamide] | 148 to 154 °C (dec.)
